Earlier results in patent US6303615A, “2,3 disubstituded-4(3H)-quinazolinones” (Pfizer Inc, priority 1999, dated 2001).

What was measured:
[1] = reported in literature (LaPeillet et al.)
[2] = reported in literature (Sheardown et al.; Buchan et al.; LePeillet et al.)

Row | SMILES | neuroprotection in rat global ischemia models [1] | preventing global and focal ischemic damage [2]
1 | CC1=NN=C(c2ccc(N)cc2)c2cc3c(cc2C1)OCO3 [GKYI 52466] | effective neuroprotective agent | 
2 | NS(=O)(=O)c1cccc2c1c([N+](=O)[O-])cc1[nH]c(=O)c(=O)[nH]c12 [NBQX, 2,3-dihydroxy-6-nitro-7-sulfamoylbenzo[f-]quinoxaline] |  | effective
